The source of these data is patent US20170029388A1, “Treatment of Neurodegenerative Diseases with Asparagine Endopeptidase (AEP) Inhibitors and Compositions Related Thereto” (INTERCONTINENTAL GREAT BRANDS LLC, priority 2014, published 2017).

Series [1] has as its target T1, AEP in human B lymphoblastoid Pala cells (Homo sapiens, UniProt Q99538).
T1 construct: human B lymphoblastoid pala cells, which are rich in endogenous AEP; endogenous in cells; host or cells: Pala cells (human B lymphoblastoid)
In words: IC50 assays in intact Pala cells. In kind it is cell-based. The settings on record: 2 hr incubation, residual AEP activity in lysate. The method, then: The cells were incubated with inhibitors for 2 hrs then cells washed, harvested and lysed and the residual enzymatic activity was determined. Lysate was normalized by Bradford assay and the experiment was performed in triplicate and the mean results and SEM were plotted.
In an attempt to assess the activity of the compounds in intact cells, the compounds were incubated with human B lymphoblastoid pala cells, which are rich in endogenous AEP and have been used for inhibiting AEP in cellular assay.
Human B Lymphoblastoid Pala cells, which express high concentrations of AEP, were cultured in RPMI-1640, supplemented with 10% FBS, 2 mM L-Glutamine, 100 units/mL Penicillin, 100 μg/mL Streptomycin. Various concentrations of each compound were incubated with the Pala cells for 2 hr at 37° C. Cells were collected, washed twice with PBS and lysed in Lysis Buffer (20 mM Citric Acid, 60 mM Disodium Hydrogen Orthophosphate, 1 mM EDTA, 0.1% CHAPS, pH 5.8). The protein concentrations were normalized by Bradford assay and lysates were assayed with 5 μ,M Cbz-Ala-Ala-Asn-AMC. […] Data were analyzed with GraFit version 5.0.11 software package.

Series [2] concerns the target T2, AEP (Homo sapiens, UniProt Q99538).
T2 construct: tested with purified active AEP, IC50 values for the top 8 candidates were found; purchased Sino Biological
T2 sequence (Q99538 18-323 limits assumed): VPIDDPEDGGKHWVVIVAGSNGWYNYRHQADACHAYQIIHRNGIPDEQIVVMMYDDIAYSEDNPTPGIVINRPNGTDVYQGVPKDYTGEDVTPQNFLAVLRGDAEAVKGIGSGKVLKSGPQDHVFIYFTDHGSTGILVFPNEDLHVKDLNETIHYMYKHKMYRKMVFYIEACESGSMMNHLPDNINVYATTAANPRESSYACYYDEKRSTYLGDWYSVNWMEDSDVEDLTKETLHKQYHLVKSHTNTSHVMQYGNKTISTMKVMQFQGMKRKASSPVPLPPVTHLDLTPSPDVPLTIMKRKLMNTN
In words: DTT reversibility assay. In kind it is biochemical. The settings on record: 5x IC50 of compound, 10 mM DTT or L-cysteine. The method, then: AEP was reacted with specified inhibitor, after 15 min 10 mM DTT or L-cysteine was added to the reaction and the fluorescent signal was read for an additional 15 min. At the end of the second 15 min incubation, the percentage of product formed in the presence of each compound was determined in comparison to the DMSO control reaction.
Although it is not intended that embodiments of this disclosure be limited by any particular mechanism, to gain additional insight into the mechanism utilized by the inhibitors for abrogation of AEP activity, their reversibility in the presence of free thiols was determined. The addition of a strong reducing agent, such as DTT, or a weaker reducing agent, L-cysteine, to an inhibited reaction can be used to out-compete the inhibitory agent and restore catalytic activity to an enzyme with an active-site thiol residue. Here, a similar approach was used by adding a reducing agent, either DTT or L-cysteine, to a reaction, in which AEP had been incubated with a specified inhibitor, in an attempt to reverse the effects of the inhibitor. […] For compounds BB1 and 38, this increase in enzymatic activity may be due to the reduction of a disulfide linkage between the inhibitor and the enzyme, since these compounds contain thiols. Compound 10 contains a thiocyanate and may undergo nucleophilic attack by the enzyme's active-site thiolate to form a thioimidate enzyme-inhibitor complex. Under acidic conditions, this complex is reducible by either a strong reducing agent, such as DTT, or the weaker L-cysteine.
Simultaneously, 10 mM (final concentration) dithiothreitol (DTT) or L-cysteine was added to each reaction and incubated for an additional 15 min. At the end of the second 15 min incubation time, the fluorescence was measured for each sample. The amount of product formed in the presence of DMSO was used to determine the percentage of AEP activity in the presence of each drug.

In series [3] the test system is cleavage of the amyloid precursor protein (APP). In words: OGD in primary cortical neurons, APP cleavage (immunoblot). In kind it is cell-based. The settings on record: for cleavage of APP after OGD: 1 μM compound. Here is the method:
(§1) A. AEP activity, measured in primary neuronal cultures with 5 μM Cbz-Ala-Ala-Asn-AMC (x-axis denotes neurons were treated with 0.1 μM or 1.0 μM specified compound). B. Caspase activity, measured in primary neuronal cultures with 5 μM Ac-Asp-Glu-Val-Asp-AMC. C. Cathepsin activity, measured in primary neuronal cultures with 5 μM D-Val-Leu-Lys-AMC. D. Inhibition of APP cleavage. Lysates of primary cortical neurons pre-incubated with compounds for 30 min, underwent OGD for 4 hrs, were reperfused for 18 hrs (normoxia neurons remained at normoxic conditions). E. APP can be cleaved in a dose-dependent manner. Lysates of primary cortical neurons pre-incubated with compounds for 30 min, underwent OGD for 4 hrs, were reperfused for 18 hrs (normoxia neurons remained at normoxic conditions).
Depriving cells of oxygen and glucose is a cellular model that is employed to trigger acidosis in cultured cells. The efficacy of the compounds in a cellular model of oxygen-glucose deprivation (OGD) was determined in an effort to mimic the effects of stroke in primary cultured neurons. As a result of depriving neurons of oxygen and glucose-containing medium, AEP activity was doubled (FIG. 7A, ‘DMSO-Norm’ compared to ‘DMSO-OGD’), while Caspase-3 and Cathepsin activities remained relatively unchanged. […] Cleavage of APP is observed in response to only DMSO treatment (FIG. 7D, lane 2), and it appears that upon the treatment of 1 μM of compounds 10, 11, and 12, and just 0.1 μM of compounds 31, 38 and 64, the cleavage was blocked, presumably due to AEP inhibition.
Compounds were pre-incubated with primary culture neurons, DIV13, for 30 min. The medium was exchanged for glucose-free DMEM and neurons were de-gased and incubated at 37° C., 95% N2/5% CO2 for 4 hrs with compounds. The medium was exchanged for DMEM and supplemented with compounds, then neurons were reperfused for 18 hrs under normoxic conditions. The neuronal lysates were prepared for AEP, Caspase-3 and Cathepsin assays. Moreover, immunoblotting analysis was conducted with the neuronal lysates using anti-APP, anti-AEP antibodies.
Background: Immunoblotting shows a protein as a band on a membrane.

The conditions of series [4]: mouse, microsomes.
The conditions of series [5]: human, microsomes.
Series [6] relates to AEP. In words: Oxygen-glucose deprivation (OGD) in primary neurons, AEP activity. In kind it is cell-based. Conditions: 0.1 μM or 1.0 μM compound. Here is the method:
as §1
Depriving cells of oxygen and glucose is a cellular model that is employed to trigger acidosis in cultured cells. The efficacy of the compounds in a cellular model of oxygen-glucose deprivation (OGD) was determined in an effort to mimic the effects of stroke in primary cultured neurons. As a result of depriving neurons of oxygen and glucose-containing medium, AEP activity was doubled (FIG. 7A, ‘DMSO-Norm’ compared to ‘DMSO-OGD’), while Caspase-3 and Cathepsin activities remained relatively unchanged. […]

The target of a further series is CYP2C9 (Homo sapiens, UniProt P11712). In words: CYP inhibition screening, CYP2C9. In kind it is in vitro ADME.
Sequence of CYP2C9 (P11712 whole entry): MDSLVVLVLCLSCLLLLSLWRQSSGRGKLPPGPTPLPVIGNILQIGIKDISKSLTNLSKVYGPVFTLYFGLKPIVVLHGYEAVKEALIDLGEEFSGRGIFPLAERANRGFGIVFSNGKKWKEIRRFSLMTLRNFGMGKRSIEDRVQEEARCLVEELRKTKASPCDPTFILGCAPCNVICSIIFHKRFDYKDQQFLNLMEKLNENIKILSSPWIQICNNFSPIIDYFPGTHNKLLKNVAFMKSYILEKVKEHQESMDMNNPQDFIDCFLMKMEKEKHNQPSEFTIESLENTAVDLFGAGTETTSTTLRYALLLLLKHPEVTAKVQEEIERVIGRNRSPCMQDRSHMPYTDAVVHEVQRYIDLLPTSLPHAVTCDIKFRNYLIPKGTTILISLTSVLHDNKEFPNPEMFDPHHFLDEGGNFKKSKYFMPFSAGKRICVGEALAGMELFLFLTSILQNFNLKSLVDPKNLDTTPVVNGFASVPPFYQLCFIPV
The target in another series is CYP2C19 (Homo sapiens, UniProt P33261). In words: CYP inhibition screening, CYP2C19. In kind it is in vitro ADME.
Sequence of CYP2C19 (P33261 whole entry): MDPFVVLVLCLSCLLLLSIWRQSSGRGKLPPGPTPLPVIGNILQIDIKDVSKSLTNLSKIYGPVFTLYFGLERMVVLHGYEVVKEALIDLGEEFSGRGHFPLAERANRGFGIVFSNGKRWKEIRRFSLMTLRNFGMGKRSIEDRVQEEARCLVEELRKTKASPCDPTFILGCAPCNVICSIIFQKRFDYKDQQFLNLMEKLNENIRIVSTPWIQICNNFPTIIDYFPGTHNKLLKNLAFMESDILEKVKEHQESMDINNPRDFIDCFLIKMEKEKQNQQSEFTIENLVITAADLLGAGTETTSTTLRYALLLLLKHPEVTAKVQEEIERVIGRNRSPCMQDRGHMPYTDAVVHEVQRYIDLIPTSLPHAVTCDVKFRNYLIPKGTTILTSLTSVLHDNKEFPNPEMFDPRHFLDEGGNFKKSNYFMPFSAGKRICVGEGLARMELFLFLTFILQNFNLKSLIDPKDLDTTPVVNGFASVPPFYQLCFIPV
Series [7] is described as follows: Liver microsomal stability, mouse. Conditions: mouse liver microsomes. A general note: Liver microsomes are vesicles of endoplasmic reticulum, rich in cytochrome P450 enzymes.
Series [8] can be described thus: Liver microsomal stability, human. The settings on record: human liver microsomes.
The next series concerns CYP3A. In words: CYP inhibition screening, CYP3A-Testosterone. In kind it is in vitro ADME.
In another series the target is CYP3A4 (Homo sapiens, UniProt P08684). In words: CYP inhibition screening, CYP3A4-Midazolam. In kind it is in vitro ADME.
Sequence of CYP3A4 (P08684 whole entry): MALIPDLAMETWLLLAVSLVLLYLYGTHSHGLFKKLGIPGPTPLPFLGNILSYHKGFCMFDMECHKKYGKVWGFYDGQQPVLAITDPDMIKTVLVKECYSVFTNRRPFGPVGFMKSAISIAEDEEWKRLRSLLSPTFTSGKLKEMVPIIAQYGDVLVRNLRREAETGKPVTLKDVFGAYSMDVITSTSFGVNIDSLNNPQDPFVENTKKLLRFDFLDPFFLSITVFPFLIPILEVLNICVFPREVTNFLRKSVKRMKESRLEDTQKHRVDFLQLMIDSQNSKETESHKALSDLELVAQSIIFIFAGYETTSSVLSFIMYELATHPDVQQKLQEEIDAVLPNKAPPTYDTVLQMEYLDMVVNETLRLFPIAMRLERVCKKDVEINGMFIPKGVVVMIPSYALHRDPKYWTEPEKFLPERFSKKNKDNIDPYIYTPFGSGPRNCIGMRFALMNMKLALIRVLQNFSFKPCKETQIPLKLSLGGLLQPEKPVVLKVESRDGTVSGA
Another series deals with CYP2D6 (Homo sapiens, UniProt P10635). In words: CYP inhibition screening, CYP2D6. In kind it is in vitro ADME.
Sequence of CYP2D6 (P10635 whole entry): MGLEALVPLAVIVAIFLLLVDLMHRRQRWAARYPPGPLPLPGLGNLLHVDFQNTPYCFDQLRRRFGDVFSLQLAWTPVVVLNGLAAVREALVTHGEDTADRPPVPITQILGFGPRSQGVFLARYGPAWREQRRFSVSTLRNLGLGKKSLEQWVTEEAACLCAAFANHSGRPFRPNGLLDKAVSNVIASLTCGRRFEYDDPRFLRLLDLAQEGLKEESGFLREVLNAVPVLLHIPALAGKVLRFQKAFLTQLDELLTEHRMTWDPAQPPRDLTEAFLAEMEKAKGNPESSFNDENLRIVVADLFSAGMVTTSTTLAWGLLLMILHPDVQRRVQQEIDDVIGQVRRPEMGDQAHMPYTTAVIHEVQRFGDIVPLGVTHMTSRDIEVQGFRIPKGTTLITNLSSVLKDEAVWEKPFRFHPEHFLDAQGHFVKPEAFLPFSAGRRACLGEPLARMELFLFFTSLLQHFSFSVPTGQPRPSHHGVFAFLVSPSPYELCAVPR
Another series has as its target T3, CYP1A2 (Homo sapiens, UniProt P05177).
T3 sequence (P05177 1-516): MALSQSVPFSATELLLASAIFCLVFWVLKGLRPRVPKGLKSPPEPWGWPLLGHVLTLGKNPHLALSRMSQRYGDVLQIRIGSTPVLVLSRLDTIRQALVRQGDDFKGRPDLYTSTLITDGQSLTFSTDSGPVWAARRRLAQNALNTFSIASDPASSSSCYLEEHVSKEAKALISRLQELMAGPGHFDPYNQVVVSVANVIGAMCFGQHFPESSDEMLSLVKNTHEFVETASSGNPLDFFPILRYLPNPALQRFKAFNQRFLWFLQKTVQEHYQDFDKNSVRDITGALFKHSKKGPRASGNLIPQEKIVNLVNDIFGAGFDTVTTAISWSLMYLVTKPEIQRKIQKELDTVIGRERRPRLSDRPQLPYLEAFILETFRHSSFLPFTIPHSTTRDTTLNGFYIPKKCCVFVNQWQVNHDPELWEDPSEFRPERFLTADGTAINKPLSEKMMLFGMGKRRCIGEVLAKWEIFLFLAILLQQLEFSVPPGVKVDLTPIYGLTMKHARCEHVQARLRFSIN
In words: CYP inhibition screening, CYP1A2. In kind it is in vitro ADME.

In another series the test system is Caco-2 monolayer. In words: Caco-2 monolayer permeability screen. In kind it is in vitro ADME. The settings on record: Caco-2. On the technique in general: Caco-2 cells form a polarised layer with tight junctions and transporters.
The conditions of series [9]: PAMPA.

SMILES strings stand for the structures. Read-outs that look alike come from different tables or passages of the source.

Description for Caco-2 monolayer: To explore the in vitro ADME profiles of the compounds, additional tests were conducted.

Turning to `N#CSc1cnc(N)s1` [Compound 10], in series [1], the “IC50 in intact Pala cells” value is “slightly larger IC50 values”. At AEP [2], the “AEP activity after addition of reducing agent (reversibility)” value is given as “regained a substantial amount of activity”. In series [3], the “dose dependence of APP cleavage after OGD” value was “dose-dependent decrease” and the “cleavage of APP after OGD” value is reported as “blocked”.

`CC(=O)CC(c1ccccc1)c1c(O)c2ccccc2oc1=O` (stereo not shown) [Warfarin]: the “Mean Remaining Parent (NADPH-free)” value in [4] was 100%; in series [5] (30 min), 104%. Besides, the “Mean Remaining Parent (with NADPH)” value came out at 91% in series [4] and 96% in series [5] (0.5 h).

As to `Cc1cccc(NCc2ccc(O)c3ncccc23)c1C` [Compound 12], the “AEP activity in OGD-treated neurons” value with AEP [6] is “slight decrease”. Also, the “CYP inhibition, CYP2C9” value on CYP2C9 (test concentration 3 μM) was 4.3%; at CYP2C9 (test concentration 10 μM), −2.7%. In addition, the “CYP inhibition, CYP2C19” value at CYP2C19 (test concentration 3 μM) is reported as 13.4%; at CYP2C19 (test concentration 10 μM), 29.4%. Moreover, the “Mean Remaining Parent (NADPH-free)” value in [7] came to 0%; in [8], 1%. Also, the “Mean Remaining Parent (with NADPH)” value in series [7] and in series [8] (30 min of incubation) was 1% throughout. The “dose dependence of APP cleavage after OGD” value in series [3] is recorded as “dose-dependent decrease”. Also, in series [3], the “cleavage of APP after OGD” value is reported as “blocked”. For the same compound, the figures for the “CYP inhibition, CYP3A-Testosterone” value with CYP3A (test concentration 3 μM) and with CYP3A (test concentration 10 μM) were 14.2% and 27.6%, respectively. Besides, the “CYP inhibition, CYP3A4-Midazolam” value at CYP3A4 (test concentration 3 μM) and at CYP3A4 (test concentration 10 μM) was −2.5% in each case. The “CYP inhibition, CYP2D6” value is given as 2.9% at CYP2D6 (test concentration 3 μM) and −2.6% on CYP2D6 (test concentration 10 μM). For the same compound, the results for the “CYP inhibition, CYP1A2” value at CYP1A2 (test concentration 3 μM) and on CYP1A2 (test concentration 10 μM) were 28.4% and 44.5%, respectively. The “A -> B Papp” value in the series on Caco-2 monolayer is on record as 1.4 10^−6 cm · s^−1. Besides, in the series on Caco-2 monolayer, the “B -> A Papp” value is 3.7 10^−6 cm · s^−1. This compound yielded an RE with Caco-2 monolayer of 2.7. Also, the Pe entry in series [9] was “<LLOQ”.
